These results are taken from paper PMC3991565 (Science (New York, N.Y.), 2014).

Assay [1] has as its target human mGlu1 receptor (Homo sapiens, UniProt Q13255). Kind of assay: FITM binding affinity at mGlu1.
Assay [2] has as its target mGlu5 (Homo sapiens, UniProt P41594). The assay is described as follows: FITM selectivity for mGlu1 over mGlu5. Format: cell-based. The conditions noted are these: mGlu1 versus mGlu5, Fig. S12.
For assay [3], the target named is wild-type (WT) full-length human mGlu1 receptor (Homo sapiens, UniProt Q13255). Kind of assay: FITM-mediated antagonism of glutamate at wild-type full-length receptor. Format: cell-based. The conditions noted are these: WT full-length human mGlu1, versus glutamate.
Sequence of wild-type (WT) full-length human mGlu1 receptor (Q13255 19-1194): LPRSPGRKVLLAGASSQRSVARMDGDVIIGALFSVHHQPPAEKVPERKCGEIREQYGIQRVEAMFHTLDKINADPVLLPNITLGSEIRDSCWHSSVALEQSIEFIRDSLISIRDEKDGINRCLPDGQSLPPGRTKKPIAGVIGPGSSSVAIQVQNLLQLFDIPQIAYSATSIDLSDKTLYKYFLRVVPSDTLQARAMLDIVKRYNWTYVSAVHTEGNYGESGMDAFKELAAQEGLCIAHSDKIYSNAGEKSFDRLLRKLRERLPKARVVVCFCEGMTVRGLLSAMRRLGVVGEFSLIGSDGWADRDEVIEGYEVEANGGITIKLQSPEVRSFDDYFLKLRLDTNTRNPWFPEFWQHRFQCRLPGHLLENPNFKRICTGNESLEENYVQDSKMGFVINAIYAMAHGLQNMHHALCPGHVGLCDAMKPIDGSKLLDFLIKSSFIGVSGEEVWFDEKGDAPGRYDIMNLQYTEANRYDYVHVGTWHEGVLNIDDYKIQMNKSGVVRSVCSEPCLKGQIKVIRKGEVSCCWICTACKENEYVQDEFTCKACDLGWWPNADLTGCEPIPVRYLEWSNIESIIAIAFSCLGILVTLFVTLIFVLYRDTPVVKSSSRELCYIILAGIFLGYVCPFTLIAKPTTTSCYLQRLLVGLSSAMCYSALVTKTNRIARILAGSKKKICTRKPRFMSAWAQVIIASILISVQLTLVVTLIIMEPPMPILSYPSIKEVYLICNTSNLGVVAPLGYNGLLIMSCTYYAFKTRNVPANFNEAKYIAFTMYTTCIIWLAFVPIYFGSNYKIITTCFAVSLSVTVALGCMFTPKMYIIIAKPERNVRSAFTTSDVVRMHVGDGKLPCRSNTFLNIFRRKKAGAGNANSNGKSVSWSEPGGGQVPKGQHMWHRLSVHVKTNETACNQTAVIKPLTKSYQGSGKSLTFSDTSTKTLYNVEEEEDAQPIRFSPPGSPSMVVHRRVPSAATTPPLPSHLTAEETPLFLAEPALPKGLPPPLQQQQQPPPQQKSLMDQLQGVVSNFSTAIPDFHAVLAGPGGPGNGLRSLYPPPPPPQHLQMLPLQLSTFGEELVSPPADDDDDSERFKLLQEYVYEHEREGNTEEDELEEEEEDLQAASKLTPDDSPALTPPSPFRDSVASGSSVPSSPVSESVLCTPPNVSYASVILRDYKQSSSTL
The subject of assay [4] is mGlu1. The conditions noted are these: mGlu1 NAM potency of FITM and analogs used for docking; cited from earlier work.
In assay [5] the test system is mGlu1. Kind of assay: potency. Format: cell-based. The conditions noted are these: relative to FITM; ref 9 values.

Sequence of mGlu5 (P41594 21-1212): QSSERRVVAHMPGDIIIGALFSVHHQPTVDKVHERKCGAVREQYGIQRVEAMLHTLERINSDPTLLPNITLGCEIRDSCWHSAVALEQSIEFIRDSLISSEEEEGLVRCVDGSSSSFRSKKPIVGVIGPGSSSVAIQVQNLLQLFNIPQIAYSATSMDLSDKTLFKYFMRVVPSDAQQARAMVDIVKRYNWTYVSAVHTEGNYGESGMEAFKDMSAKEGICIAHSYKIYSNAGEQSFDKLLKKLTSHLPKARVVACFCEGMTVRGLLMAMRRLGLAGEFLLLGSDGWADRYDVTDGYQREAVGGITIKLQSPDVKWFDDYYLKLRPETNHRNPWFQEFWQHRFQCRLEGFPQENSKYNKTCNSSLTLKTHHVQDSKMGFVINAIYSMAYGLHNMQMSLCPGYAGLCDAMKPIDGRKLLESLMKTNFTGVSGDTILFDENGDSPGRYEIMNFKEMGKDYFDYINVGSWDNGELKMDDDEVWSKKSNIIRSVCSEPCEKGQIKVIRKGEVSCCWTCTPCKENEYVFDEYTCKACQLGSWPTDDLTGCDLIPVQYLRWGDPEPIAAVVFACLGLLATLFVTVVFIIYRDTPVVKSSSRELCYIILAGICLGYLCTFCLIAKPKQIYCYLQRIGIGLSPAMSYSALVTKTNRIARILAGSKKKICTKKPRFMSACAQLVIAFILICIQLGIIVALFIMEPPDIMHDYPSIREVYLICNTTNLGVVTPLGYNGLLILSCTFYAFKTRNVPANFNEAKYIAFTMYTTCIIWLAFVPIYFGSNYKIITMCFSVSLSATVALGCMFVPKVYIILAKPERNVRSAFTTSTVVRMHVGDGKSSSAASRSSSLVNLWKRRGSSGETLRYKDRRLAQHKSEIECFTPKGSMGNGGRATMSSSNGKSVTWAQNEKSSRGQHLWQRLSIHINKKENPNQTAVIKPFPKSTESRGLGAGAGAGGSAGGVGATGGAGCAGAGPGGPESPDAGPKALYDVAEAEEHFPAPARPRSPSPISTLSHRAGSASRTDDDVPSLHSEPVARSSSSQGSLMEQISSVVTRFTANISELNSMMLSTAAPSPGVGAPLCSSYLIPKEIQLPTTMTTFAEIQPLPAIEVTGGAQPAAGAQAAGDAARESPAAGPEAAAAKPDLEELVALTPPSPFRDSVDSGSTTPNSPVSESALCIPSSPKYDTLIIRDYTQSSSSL
Sequence of human mGlu1 receptor (Q13255 581-860): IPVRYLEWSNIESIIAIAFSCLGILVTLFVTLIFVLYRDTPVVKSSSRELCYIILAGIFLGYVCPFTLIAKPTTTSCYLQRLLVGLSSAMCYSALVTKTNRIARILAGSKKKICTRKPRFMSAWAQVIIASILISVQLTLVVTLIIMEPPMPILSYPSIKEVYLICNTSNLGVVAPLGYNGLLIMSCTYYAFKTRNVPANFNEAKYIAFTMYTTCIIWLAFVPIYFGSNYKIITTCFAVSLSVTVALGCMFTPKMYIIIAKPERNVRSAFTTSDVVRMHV

Turning to `CC(C)Nc1cc(-c2csc(N(C)C(=O)c3ccc(F)cc3)n2)ncn1` [FITM, 4-fluoro-N-(4-(6-(isopropylamino)pyrimidin-4-yl)thiazol-2-yl)-N-methylbenzamide], the Ki (in general, a measure of affinity in units of concentration, obtained from inhibition or displacement) in assay [1] is 2.5 nM. The subtype selectivity entry in assay [2] was “selectivity for mGlu1 over mGlu5”. The “mode of allosteric modulation” value in assay [3] is listed as “full NAM”. The IC50 (as a rule, the concentration that inhibits the measured activity by half) in assay [4] is 5 nM.

Turning to `CC(C)N(C)c1cc(-c2csc(N(C)C(=O)c3ccc(F)cc3)n2)ncn1` [compound 28], the “fold lower potency than FITM” value in assay [5] was “approximately 10 fold”. The IC50 in assay [4] was 77 nM.
